Laboratory results from publication PMC3020594 (International journal of biological macromolecules, 2010).
Read-outs that look alike come from different tables or passages of the source.

Target: human cytidine deaminase (CDA) (Homo sapiens, UniProt P32320, Y33G)
Experiment: biochemical
Assay type: biochemical

human cytidine deaminase (CDA), sequence (P32320 whole entry Y33G): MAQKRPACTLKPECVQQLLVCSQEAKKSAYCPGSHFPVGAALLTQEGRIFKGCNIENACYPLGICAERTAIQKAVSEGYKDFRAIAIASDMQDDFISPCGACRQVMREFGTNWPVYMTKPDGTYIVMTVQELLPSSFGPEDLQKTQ

Row | Ki (read-out: Y33G) | Ki | Compound
1 | 3400 nM | – | 6-[3,5(cytidyl)acryloylamino] hexanoic acid [CV6]
2 | – | 200 nM | O=c1ncc(F)cn1[C@@H]1O[C@H](CO)[C@@H](O)[C@H]1O [5-FZEB, 5-Fluorozebularine]
